Experimental data published in US9290511B2, “Thieno-pyrimidines, useful as potassium channel inhibitors” (XENTION LIMITED, priority 2011, dated 2016).

Target: T1, Kir3.1/3.4 (Rattus norvegicus, UniProt P48548+P63251)
T1 construct: expressed in transfected cells
T1 sequence (P63251 1-501): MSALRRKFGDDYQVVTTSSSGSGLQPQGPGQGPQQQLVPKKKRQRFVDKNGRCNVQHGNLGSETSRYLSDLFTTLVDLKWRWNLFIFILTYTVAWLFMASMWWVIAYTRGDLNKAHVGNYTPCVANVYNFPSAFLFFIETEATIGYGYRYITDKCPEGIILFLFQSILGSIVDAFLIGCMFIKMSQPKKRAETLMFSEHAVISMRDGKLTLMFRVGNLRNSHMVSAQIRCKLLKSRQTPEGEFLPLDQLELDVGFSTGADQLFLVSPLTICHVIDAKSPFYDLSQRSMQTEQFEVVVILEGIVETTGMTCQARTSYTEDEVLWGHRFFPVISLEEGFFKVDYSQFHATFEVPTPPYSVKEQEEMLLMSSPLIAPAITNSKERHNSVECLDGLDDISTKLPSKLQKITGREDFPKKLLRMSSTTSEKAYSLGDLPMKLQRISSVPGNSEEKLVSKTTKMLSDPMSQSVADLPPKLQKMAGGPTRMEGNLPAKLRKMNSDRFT
T1 sequence (P48548 1-419): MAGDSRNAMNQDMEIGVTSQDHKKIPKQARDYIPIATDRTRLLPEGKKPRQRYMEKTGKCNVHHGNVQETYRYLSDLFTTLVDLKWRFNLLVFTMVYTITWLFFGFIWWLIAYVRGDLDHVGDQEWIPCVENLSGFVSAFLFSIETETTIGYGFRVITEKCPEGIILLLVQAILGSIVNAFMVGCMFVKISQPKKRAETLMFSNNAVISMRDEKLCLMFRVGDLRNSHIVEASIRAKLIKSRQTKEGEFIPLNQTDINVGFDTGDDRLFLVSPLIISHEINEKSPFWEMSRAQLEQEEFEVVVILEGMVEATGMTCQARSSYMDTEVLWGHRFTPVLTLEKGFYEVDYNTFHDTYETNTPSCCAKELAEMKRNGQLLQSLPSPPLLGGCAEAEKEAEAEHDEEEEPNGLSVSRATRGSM
Experiment: Kir3.1/3.4 Electrophysiology Method (manual whole-cell patch clamp)
Format: cell-based
Conditions: Electrophysiology Method (TABLE 1)
In short: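 Percent inhibition is relative to the pre-drug current, both leak-subtracted using a potassium-free bather, taken as the mean current at −140 mV. The protocol was a step to +60 mV, a ramp to −140 mV, then a return to −60 mV holding, every 10 s. Cells were rat Kir3.1/3.4-transfected HEK293 recorded by whole-cell patch clamp.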

Work on `COCCN(CCOC)CC1CCN(c2ncnc3scc(-c4ccccc4)c23)CC1` [Example 53, 2-methoxy-N-(2-methoxyethyl)-N-[[1-(5-phenylthieno[2,3-d]pyrimidin-4-yl)-4-piperidyl]methyl]ethanamine] yielded an IC50 of less than 500 nM.

`CC1CCN(CC2CCN(c3ncnc4scc(-c5ccccc5)c34)CC2)C1` (centres unmarked) [Example 50, 4-[4-[(3-methylpyrrolidin-1-yl)methyl]-1-piperidyl]-5-phenyl-thieno[2,3-d]pyrimidine] showed an IC50 of 500 to 3000 nM.

`c1ccc(-c2csc3ncnc(N4CCC(CNCCC5CCCO5)CC4)c23)cc1` (centres unmarked) [Example 102] gave an IC50 of less than 500 nM.

Work on `OCC1CCN(CC2CCN(c3ncnc4scc(-c5ccccc5)c34)CC2)C1` (centres unmarked) [Example 95, [1-[[1-(5-phenylthieno[2,3-d]pyrimidin-4-yl)-4-piperidyl]methyl]pyrrolidin-3-yl]methanol] yielded an IC50 of 500 to 3000 nM.

`COCCNCC1CCN(c2nc(NCCN3CCCC3)nc3scc(-c4ccccc4)c23)CC1` [Example 109] gave an IC50 of 500 to 3000 nM.

`CN(CC1CCN(c2ncnc3scc(-c4ccccc4)c23)CC1)C1CCOC1` (centres unmarked) [Example 203] showed an IC50 of 500 to 3000 nM.

`CCc1nc(N2CCC(N(C)C)CC2)c2c(-c3ccccc3)csc2n1` [Example 370] showed an IC50 of less than 500 nM.

Compound `COCCNc1nc(N2CCC(CN(C)C3CCN(C)C3)CC2)c2c(-c3ccccc3)csc2n1` (centres unmarked) [Example 118] has an IC50 of less than 500 nM.

`Cc1csc2ncnc(N3CCC(COCCC4CCCN4C)CC3)c12` (centres unmarked) [Example 2, 5-methyl-4-[4-[2-(1-methylpyrrolidin-2-yl)ethoxymethyl]-1-piperidyl]thieno[2,3-d]pyrimidine] was tested, and the IC50 was 500 to 3000 nM.

`CCc1nc(N2CCC(N(C)C)CC2)c2c(-c3ccccc3)csc2n1` [Example 170] gave an IC50 of 500 to 3000 nM.

Compound `CN1CCC(N(C)CC2CCN(c3nc(N4CCCC4C(N)=O)nc4scc(-c5ccccc5)c34)CC2)C1` (centres unmarked) [Example 130] has an IC50 of 500 to 3000 nM.

For `F[C@H]1CCN(CC2CCN(c3ncnc4scc(-c5ccccc5)c34)CC2)C1` [Example 92, 4-[4-[[(3S)-3-fluoropyrrolidin-1-yl]methyl]-1-piperidyl]-5-phenyl-thieno[2,3-d]pyrimidine], the IC50 was 500 to 3000 nM.

`Fc1ccc(-c2csc3ncnc(N4CCC(CNC5CCC5)CC4)c23)cc1` [Example 78, N-[[1-[5-(4-fluorophenyl)thieno[2,3-d]pyrimidin-4-yl]-4-piperidyl]methyl]cyclobutanamine] was tested, and the IC50 was 500 to 3000 nM.

For `CC(C)NC(=O)c1sc2ncnc(N3CCC(CN(C)C4CCN(C)C4)CC3)c2c1-c1ccccc1` (centres unmarked) [Example 132], the IC50 was less than 500 nM.

For `CN(C)C(=O)c1sc2ncnc(N3C4CCC3CC(COCCN3CCCC3)C4)c2c1-c1ccccc1` (centres unmarked) [Example 356], the IC50 was less than 500 nM.

Work on “N-(2-pyrrolidin-1-ylethyl)thieno[2,3-d]pyrimidin-2-amine [Example 127]” yielded an IC50 of less than 500 nM.

Compound `OCc1sc2ncnc(N3CCC(COCCN4CCCC4)CC3)c2c1-c1ccccc1` [Example 281, [5-phenyl-4-[4-(2-pyrrolidin-1-ylethoxymethyl)-1-piperidyl]thieno[2,3-d]pyrimidin-6-yl]methanol] has an IC50 of less than 500 nM.

`CN(C)C(=O)c1ccccc1-c1csc2ncnc(N3C4CCC3CC(COCCN3CCCC3)C4)c12` (centres unmarked) [Example 364] showed an IC50 of less than 500 nM.

`COc1ccccc1-c1csc2ncnc(N3CCC(COCCN4CCCC4)CC3)c12` [Example 329] showed an IC50 of less than 500 nM.

With `CN1CCC(N(C)CC2CCN(c3nc(N4CCC[C@@H]4C(N)=O)nc4scc(-c5ccccc5)c34)CC2)C1` (some centres unmarked) [Example 229] the IC50 was less than 500 nM.

`CN1CCC(N(C)CC2CCN(c3ncnc4scc(-c5ccccc5)c34)C2)C1` (centres unmarked) [Example 205] gave an IC50 of less than 500 nM.

With `OCC(Cc1ccccc1)NCC1CCN(c2ncnc3scc(-c4ccccc4)c23)CC1` (centres unmarked) [Example 57, 3-phenyl-2-[[1-(5-phenylthieno[2,3-d]pyrimidin-4-yl)-4-piperidyl]methylamino]propan-1-ol] the IC50 was less than 500 nM.

With `c1ccc(-c2csc3nc(N4CCC(COCCN5CCCC5)CC4)ncc23)cc1` [Example 148, 5-phenyl-2-[4-(2-pyrrolidin-1-ylethoxymethyl)-1-piperidyl]thieno[2,3-d]pyrimidine] the IC50 was less than 500 nM.

Compound `Cc1sc2ncnc(N3CCC(CNC4CCN(C)CC4)CC3)c2c1C` [Example 232] has an IC50 of less than 500 nM.

Work on `COc1ccccc1-c1csc2nc(C3CC3)nc(N3CCC(COCCN4CCCC4)CC3)c12` [Example 358, 2-cyclopropyl-5-(2-methoxyphenyl)-4-[4-(2-pyrrolidin-1-ylethoxymethyl)-1-piperidyl]thieno[2,3-d]pyrimidine] yielded an IC50 of less than 500 nM.

`c1ccc(-c2csc3ncnc(N4CCC(COc5cccnc5)CC4)c23)cc1` [Example 180] showed an IC50 of less than 500 nM.

`CN1CCN(CC2CCN(c3ncnc4scc(-c5ccccc5)c34)CC2)CC1` [Example 214] gave an IC50 of less than 500 nM.

Work on `FC(F)(F)c1nc(N2CCOCC2)c2c(-c3ccccc3)csc2n1` [Example 336] yielded an IC50 of 500 to 3000 nM.

`COCC1CC2CCC(C1)N2c1nc(OC2CC3CC2CN3)nc2scc(-c3ccccc3)c12` (centres unmarked) [Example 352] was tested, and the IC50 was less than 500 nM.

For `OC1CCCN(CC2CCN(c3ncnc4scc(-c5ccccc5)c34)CC2)C1` (centres unmarked) [Example 55, 1-[[1-(5-phenylthieno[2,3-d]pyrimidin-4-yl)-4-piperidyl]methyl]piperidin-3-ol], the IC50 was 500 to 3000 nM.

With `COc1ncccc1-c1csc2ncnc(N3C4CCC3CC(CO)C4)c12` (centres unmarked) [Example 365] the IC50 was 500 to 3000 nM.

For `CN(C)CCCN(C)CC1CCN(c2ncnc3scc(-c4ccccc4)c23)CC1` [Example 72, N,N,N′-trimethyl-N′-[[1-(5-phenylthieno[2,3-d]pyrimidin-4-yl)-4-piperidyl]methyl]propane-1,3-diamine], the IC50 was less than 500 nM.

`CC(=O)NC1CCN(c2nc(N3CCC(COCCN4CCCC4)CC3)c3c(-c4ccccc4)csc3n2)C1` (centres unmarked) [Example 257] was tested, and the IC50 was less than 500 nM.

`CN(C)C1CCN(C2CCN(c3ncnc4scc(-c5ccccc5)c34)CC2)CC1` [Example 222] was tested, and the IC50 was less than 500 nM.

In the case of `CN1CCC(N(C)CC2CCN(c3nc(NCCN4CCCC4)nc4scc(-c5ccccc5)c34)CC2)C1` (centres unmarked) [Example 110], the IC50 is reported as less than 500 nM.

Compound `CN(C)C1CCN(CC2CCN(c3ncnc4scc(-c5ccccc5)c34)CC2)CC1` [Example 75, N,N-dimethyl-1-[[1-(5-phenylthieno[2,3-d]pyrimidin-4-yl)-4-piperidyl]methyl]piperidin-4-amine] has an IC50 of less than 500 nM.

Compound `c1ccc(-c2csc3ncnc(N4CCCC(CNC5CCC5)C4)c23)cc1` (centres unmarked) [Example 207] has an IC50 of 500 to 3000 nM.

In the case of `c1ccc(-c2csc3nc(C4CC4)nc(N4C5CCC4CC(N4CCC4)C5)c23)cc1` (centres unmarked) [Example 322], the IC50 is reported as less than 500 nM.

Work on `CCN1CCCC1CCN(C)CC1CCN(c2ncnc3scc(-c4ccccc4)c23)CC1` (centres unmarked) [Example 87, 2-(1-ethylpyrrolidin-2-yl)-N-methyl-N-[[1-(5-phenylthieno[2,3-d]pyrimidin-4-yl)-4-piperidyl]methyl]ethanamine] yielded an IC50 of less than 500 nM.

`CN(C)[C@@H]1CCCN(CC2CCN(c3ncnc4scc(-c5ccccc5)c34)CC2)C1` [Example 216] gave an IC50 of less than 500 nM.

`Fc1ccc(-c2csc3ncnc(N4CC5C(COCCN6CC7CC6CO7)C5C4)c23)cc1` (centres unmarked) [Example 48, 5-[2-[[3-[5-(4-fluorophenyl)thieno[2,3-d]pyrimidin-4-yl]-3-azabicyclo[3.1.0]hexan-6-yl]methoxy]ethyl]-2-oxa-5-azabicyclo[2.2.1]heptane] gave an IC50 of less than 500 nM.

Compound “5-phenyl-thieno[2,3-d]pyrimidine-2-carbonitrile [Example 338]” has an IC50 of less than 500 nM.

`COCC1CCN(c2nc(CC(=O)NCCN3CCCC3)nc3scc(-c4ccccc4)c23)CC1` [Example 182] was tested, and the IC50 was less than 500 nM.

Work on `CC(=O)Nc1sc2ncnc(N3CCC(COCCN4CCCC4)CC3)c2c1-c1ccccc1` [Example 162, N-[5-phenyl-4-[4-(2-pyrrolidin-1-ylethoxymethyl)-1-piperidyl]thieno[2,3-d]pyrimidin-6-yl]acetamide] yielded an IC50 of less than 500 nM.

For `NC(=O)[C@H]1CCCN1CCOC1CC2CC1CN2c1ncnc2scc(-c3ccccc3)c12` (some centres unmarked) [Example 293], the IC50 was less than 500 nM.

Work on `CC(C)c1csc2nc(N3CCC(C(N)=O)C3)nc(N3CCC(CN(C)C4CCN(C)C4)CC3)c12` (centres unmarked) [Example 245] yielded an IC50 of less than 500 nM.

`CN(C)C1CCCN(CC2CCN(c3ncnc4scc(-c5ccccc5)c34)CC2)C1` (centres unmarked) [Example 60, N,N-dimethyl-1-[[1-(5-phenylthieno[2,3-d]pyrimidin-4-yl)-4-piperidyl]methyl]piperidin-3-amine] was tested, and the IC50 was less than 500 nM.

`O=C(NCCN1CCCC1)C1CCN(c2ncnc3scc(-c4ccccc4)c23)CC1` [Example 267] showed an IC50 of 500 to 3000 nM.

Work on `O=C(NCCO)c1sc2ncnc(N3CCC(COCCN4CCCC4)CC3)c2c1-c1ccccc1` [Example 280] yielded an IC50 of 500 to 3000 nM.

For `CN(C)CCN(C)CC1CCN(c2nc(N3CCC(C(N)=O)C3)nc3scc(-c4ccccc4)c23)CC1` (centres unmarked) [Example 225], the IC50 was less than 500 nM.
